Experimental data from PubChem BioAssay (NCI).
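Assay format: 96-well plates, 48-hour exposure. GI50 = concentration required for 50% inhibition of growth. The concentration for full growth arrest is given as TGI.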

Columns and labels:
Assay in all cases: NCI anticancer screen, dose series, 48 h
OVCAR-4 ovarian = tested on: OVCAR-4 ovarian
IGROV1 ovarian = tested on: IGROV1 ovarian
EKVX NSCLC = tested on: EKVX NSCLC
HOP-62 NSCLC = tested on: HOP-62 NSCLC
SK-MEL-5 melanoma = tested on: SK-MEL-5 melanoma
HL-60(TB) leukemia = tested on: HL-60(TB) leukemia
786-0 renal = tested on: 786-0 renal
HCT-116 colon = tested on: HCT-116 colon
SNB-75 CNS = tested on: SNB-75 CNS
HCT-15 colon = tested on: HCT-15 colon

Structure (SMILES): Cc1ccc2c(C(C[N+](=O)[O-])c3cccs3)c(-c3ccccc3)[nH]c2c1 (centres undefined)
- GI50 (OVCAR-4 ovarian): 4.45 µM
- TGI (OVCAR-4 ovarian): 13.9 µM
- GI50 (IGROV1 ovarian): 1.12 µM
- TGI (IGROV1 ovarian): 5.81 µM
- GI50 (EKVX NSCLC): 2 µM
- TGI (EKVX NSCLC): 14.9 µM
- GI50 (HOP-62 NSCLC): 2.25 µM
- TGI (HOP-62 NSCLC): 11.7 µM
- GI50 (SK-MEL-5 melanoma): 1.07 µM
- TGI (SK-MEL-5 melanoma): 4.21 µM
- GI50 (HL-60(TB) leukemia): 1.14 µM
- TGI (HL-60(TB) leukemia): 14.6 µM
- GI50 (786-0 renal): 2.26 µM
- TGI (786-0 renal): 7.89 µM
- GI50 (HCT-116 colon): 1.31 µM
- TGI (HCT-116 colon): 4.56 µM
- GI50 (SNB-75 CNS): 0.638 µM
- TGI (SNB-75 CNS): 2.49 µM
- GI50 (HCT-15 colon): 1.44 µM
- TGI (HCT-15 colon): 7.46 µM

Structure (SMILES): C#CCNC(=O)NC(CCCNC(=O)OCc1ccccc1)C(=O)OCc1ccccc1 (centres undefined)
- TGI (OVCAR-4 ovarian): > 100 µM
- TGI (IGROV1 ovarian): > 100 µM
- TGI (EKVX NSCLC): > 100 µM
- TGI (HOP-62 NSCLC): > 100 µM
- TGI (SK-MEL-5 melanoma): > 100 µM
- TGI (HL-60(TB) leukemia): 59.3 µM
- TGI (786-0 renal): > 100 µM
- TGI (HCT-116 colon): > 100 µM
- TGI (SNB-75 CNS): > 100 µM
- TGI (HCT-15 colon): > 100 µM

Structure (SMILES): Cc1nn(-c2ccc(F)cc2)c2ncnc(Nc3ccc(NC(=O)Nc4ccc(Cl)c(C(F)(F)F)c4)cc3)c12
- GI50 (OVCAR-4 ovarian): 2.46 µM
- TGI (OVCAR-4 ovarian): 7.13 µM
- GI50 (IGROV1 ovarian): 2.66 µM
- TGI (IGROV1 ovarian): 11.2 µM
- GI50 (EKVX NSCLC): 2.78 µM
- TGI (EKVX NSCLC): 10.8 µM
- GI50 (HOP-62 NSCLC): 2.25 µM
- TGI (HOP-62 NSCLC): 6.83 µM
- GI50 (SK-MEL-5 melanoma): 3.39 µM
- TGI (SK-MEL-5 melanoma): 12.1 µM
- GI50 (HL-60(TB) leukemia): 2.73 µM
- TGI (HL-60(TB) leukemia): 8.1 µM
- GI50 (786-0 renal): 1.98 µM
- TGI (786-0 renal): 5.85 µM
- GI50 (HCT-116 colon): 1.51 µM
- TGI (HCT-116 colon): 5.07 µM
- GI50 (SNB-75 CNS): 1.32 µM
- TGI (SNB-75 CNS): 5.41 µM
- GI50 (HCT-15 colon): 2.73 µM
- TGI (HCT-15 colon): 12.5 µM

Structure (SMILES): N#CC1(c2nc3ccccc3o2)C(=O)C(=O)N(C2C3CC4CC(C3)CC2C4)C(=O)C1=O (centres undefined)
- TGI (OVCAR-4 ovarian): > 100 µM
- TGI (IGROV1 ovarian): > 100 µM
- TGI (EKVX NSCLC): > 100 µM
- TGI (HOP-62 NSCLC): > 100 µM
- TGI (SK-MEL-5 melanoma): > 100 µM
- TGI (HL-60(TB) leukemia): > 100 µM
- TGI (786-0 renal): > 100 µM
- TGI (HCT-116 colon): > 100 µM
- TGI (SNB-75 CNS): > 100 µM
- TGI (HCT-15 colon): > 100 µM

Structure (SMILES): COc1ccc(C(=O)Nc2ncc(Cc3ccc(Cl)cc3)s2)cc1
- GI50 (OVCAR-4 ovarian): 2.7 µM
- TGI (OVCAR-4 ovarian): > 100 µM
- GI50 (IGROV1 ovarian): 0.0825 µM
- TGI (IGROV1 ovarian): > 100 µM
- GI50 (EKVX NSCLC): 0.26 µM
- TGI (EKVX NSCLC): > 100 µM
- GI50 (HOP-62 NSCLC): 0.0984 µM
- TGI (HOP-62 NSCLC): > 83.4 µM
- GI50 (SK-MEL-5 melanoma): 0.0419 µM
- TGI (SK-MEL-5 melanoma): 2.83 µM
- GI50 (HL-60(TB) leukemia): 0.0347 µM
- GI50 (786-0 renal): 0.0779 µM
- TGI (786-0 renal): > 100 µM
- GI50 (HCT-116 colon): 0.0509 µM
- TGI (HCT-116 colon): > 100 µM
- GI50 (SNB-75 CNS): 0.0424 µM
- TGI (SNB-75 CNS): > 100 µM
- GI50 (HCT-15 colon): 0.044 µM
- TGI (HCT-15 colon): > 100 µM

Structure (SMILES): O=C(c1cccs1)c1c(C(F)(F)F)n([O-])c2ccccc2[n+]1=O
- GI50 (OVCAR-4 ovarian): 0.941 µM
- TGI (OVCAR-4 ovarian): 3.09 µM
- GI50 (IGROV1 ovarian): 0.0603 µM
- TGI (IGROV1 ovarian): 2.29 µM
- GI50 (EKVX NSCLC): 0.798 µM
- TGI (EKVX NSCLC): 1.55 µM
- GI50 (HOP-62 NSCLC): 0.376 µM
- TGI (HOP-62 NSCLC): 1.24 µM
- GI50 (SK-MEL-5 melanoma): 0.686 µM
- TGI (SK-MEL-5 melanoma): 1.33 µM
- GI50 (HL-60(TB) leukemia): 0.25 µM
- TGI (HL-60(TB) leukemia): 0.966 µM
- GI50 (786-0 renal): 0.521 µM
- TGI (786-0 renal): 1.45 µM
- GI50 (HCT-116 colon): 0.41 µM
- TGI (HCT-116 colon): 1.07 µM
- GI50 (SNB-75 CNS): 2.94 µM
- TGI (SNB-75 CNS): 9.05 µM
- GI50 (HCT-15 colon): 0.432 µM
- TGI (HCT-15 colon): 1.1 µM

Structure (SMILES): CCOc1ccc(NC(=O)CC2Sc3ccccc3NC2=O)cc1 (centres undefined)
- TGI (OVCAR-4 ovarian): 39.8 µM
- TGI (IGROV1 ovarian): > 100 µM
- TGI (EKVX NSCLC): > 100 µM
- TGI (HOP-62 NSCLC): > 100 µM
- TGI (SK-MEL-5 melanoma): > 100 µM
- TGI (HL-60(TB) leukemia): > 100 µM
- TGI (786-0 renal): 39.3 µM
- TGI (HCT-116 colon): 76.2 µM
- TGI (SNB-75 CNS): 95 µM
- TGI (HCT-15 colon): > 100 µM
